Data set [1] in a line: Drug transport across human Caco-2 cells (permeability). The class given is in vitro ADME. Particulars: pH 7.2, 37° C.; for efflux ratio: PEBA/PEAB, Caco-2 monolayers; for Papp A→B: apical-to-basal (absorptive) apparent permeability across Caco-2 monolayers, read-out: PEAB; for Papp B→A: basal-to-apical (secretory) apparent permeability across Caco-2 monolayers, read-out: PEBA. As to the method:
The assay provides information on the potential of a compound to pass the cell membrane, on the extent of oral absorption as well as on whether the compound is actively transported by uptake and/or efflux transporters. Permeability measurements across polarized, confluent Caco-2 cell monolayers grown on permeable filter supports are used as the in vitro absorption model. Apparent permeability coefficients (PE) of the compounds across the Caco-2 monolayers are measured (pH 7.2, 37° C.) in apical-to-basal (AB) (absorptive) and basal-to-apical (BA) (secretory) transport direction. AB permeability (PEAB) represents drug absorption from the intestine into the blood and BA permeability (PEBA) drug secretion from the blood back into the intestine via both passive permeability as well as active transport mechanisms mediated by efflux and uptake transporters that are expressed on the Caco-2 cells. The compounds are assigned to permeability/absorption classes by comparison of the AB permeabilities with the AB permeabilities of reference compounds with known in vitro permeability and oral absorption in the human. Identical or similar permeabilities in both transport directions indicate passive permeation, vectorial permeability points to additional active transport mechanisms. […] Active transport is concentration-dependently saturable.
Caco-2 cells obtained from the Leibniz Institute DSMZ-German Collection of Microorganisms and Cell Cultures GmbH (1-2×10^5 cells/1 cm^2 area) are seeded on filter inserts (Costar transwell polycarbonate or PET filters, 0.4 μm pore size) and cultured (DMEM) for 10 to 25 days. Compounds are dissolved in appropriate solvent (like DMSO, 1-20 mM stock solutions). Stock solutions are diluted with HTP-4 buffer (128.13 mM NaCl, 5.36 mM KCl, 1 mM MgSO4, 1.8 mM CaCl2), 4.17 mM NaHCO3, 1.19 mM Na2HPO4×7H2O, 0.41 mM NaH2PO4×H2O, 15 mM HEPES, 20 mM glucose, pH 7.2) containing 0.25% BSA to prepare the transport solutions (0.1-300 μM compound, final DMSO≤0.5%). The transport solution (TL) is applied to the apical or basolateral donor side for measuring A-B or B-A permeability (3 filter replicates), respectively. The receiver side contains HTP-4 buffer supplemented with 0.25% BSA. Samples are collected at the start and end of experiment from the donor and at various time intervals (0, 30, 60, and 90 minutes) for up to 2 hours also from the receiver side for concentration measurement by HPLC-MS/MS or scintillation counting. Sampled receiver volumes are replaced with fresh receiver solution. Compounds are assigned to the following permeability/oral absorption classes: • Very low: […] • Low: 1×10^−7 cm/s<PEAB<6×10^−7 cm/sec • Moderate: 6×10^−7 cm/sec<PEAB<5×10^−6 cm/sec • Good: 5×10^−6 cm/s<[…]
Compounds are classified with respect to (permeability) efflux ratios (PEBA/PEAB) given below whether they are likely to be actively transported: • no: 0.67<=ratio <=1.5 • probable (active efflux): 1.5<ratio <=2 • probable (active uptake): […] • yes (active efflux): 2<ratio • yes (active uptake): ratio <0.5

The next data set addresses T1, PHGDH (Homo sapiens, UniProt O43175).
T1 construct: The full length version of PHGDH enzyme was expressed in BL21 (DE3) E. coli; HIS-tag (N); TEV cleavage site (N); made in house; host or cells: E. coli BL21 (DE3)
T1 sequence (O43175 1-533): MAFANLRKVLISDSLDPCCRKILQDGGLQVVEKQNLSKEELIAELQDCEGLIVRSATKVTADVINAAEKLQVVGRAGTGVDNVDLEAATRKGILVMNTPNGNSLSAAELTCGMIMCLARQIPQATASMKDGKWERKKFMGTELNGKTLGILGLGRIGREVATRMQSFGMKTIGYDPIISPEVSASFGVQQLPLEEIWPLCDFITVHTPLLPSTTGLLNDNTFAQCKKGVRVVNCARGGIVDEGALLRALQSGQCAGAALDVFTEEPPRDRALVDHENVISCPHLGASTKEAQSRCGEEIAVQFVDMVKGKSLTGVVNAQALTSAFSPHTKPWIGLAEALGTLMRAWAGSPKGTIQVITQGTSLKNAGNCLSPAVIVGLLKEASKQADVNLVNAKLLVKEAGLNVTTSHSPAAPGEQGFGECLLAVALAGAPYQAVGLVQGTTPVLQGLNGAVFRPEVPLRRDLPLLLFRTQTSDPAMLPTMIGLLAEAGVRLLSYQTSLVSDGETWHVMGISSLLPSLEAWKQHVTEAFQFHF
Put plainly: 3-Phosphoglycerate dehydrogenase (PHGDH) Fluorescence Intensity Assay. It counts as biochemical. The settings on record: full length recombinant PHGDH, 500 μM NAD and 500 μM 3-PG, 240 minutes incubation, room temperature. From the text:
3-Phosphoglycerate dehydrogenase (PHGDH) Fluorescence Intensity Assay This assay is used to identify compounds which inhibit the enzymatic activity of PHGDH which catalyzes the reaction of 3-Phosphoglycerate (3-PG) and NAD to 3-Phosphohydroxypyruvate and NADH.
The produced NADH is used in a coupled reaction for Diaphorase mediated reduction of Resazurin to Resorufin which can be measured in a Fluorescence Intensity readout.
The full length version of PHGDH enzyme was expressed in BL21 (DE3) E. coli through transformation with a plasmid containing the PHGDH cDNA with an N-terminal HIS-tag and a TEV cleavage site. The recombinant protein was then isolated with Ni-NTA beads and eluted on MONO Q ion exchange chromatography columns. The fractions corresponding to PHGDH were de-salted and concentrated to be used in the biochemical assay.
The 3-phosphoglycerate substrate was purchased from Sigma. NAD, Diaphorase and Resazurin were purchased from Sigma Aldrich.
Compounds are dispensed onto assay plates (black, low volume, flat bottom 384 well, Corning) using an Access Labcyte Workstation with the Labcyte Echo 55× from a DMSO solution. For the chosen highest assay concentration of 100 μM, 150 nl of compound solution are transferred from a 10 mM DMSO compound stock solution. A series of 11 concentrations (10 1:5 steps) is transferred for each compound.
DMSO is added such that every well has a total of 150 nl compound solution.
The assay has been performed using 500 μM NAD and 500 μM 3-PG (final assay concentrations).
5 μl of PHGDH protein (final assay concentration 100 ng/ml) in assay buffer (125 mM Tris-HCl, pH 7.5; 56.25 mM hydrazine sulfate pH 9.0; 2.5 mM EDTA; assay specific NAD concentration; 0.0125% Tween20) are added to the 150 nl of compounds.
10 μl of a mix containing assay specific 3-PG concentration (500 μM), Resazurin (25 µM final assay concentration) and Diaphorase (35 μg/ml final assay concentration) are added. Plates are kept at room temperature. After 240 minutes incubation time the fluorescence signal is measured in a PerkinElmer Envision HTS Multilabel Reader with an excitation wavelength at 530-560 nm and an emission wavelength at 590 nm.
Each plate contains negative controls (diluted DMSO instead of test compound; reaction as described with PHGDH protein) and positive controls (diluted DMSO instead of test compound; reaction as described with buffer instead of PHGDH protein). Negative and positive control values are used for normalization.
A known inhibitor of PHGDH activity is used as internal control.
IC50 values are calculated and analyzed in the MEGALAB IC50 application using a 4 parametric logistic model.

Usually efflux ratio stands for a quotient of directional permeabilities that is used to spot active efflux. In general, IC50 refers to the point on the concentration scale where inhibition reaches its midpoint. `Cc1cc2c(cc1Cl)cc(C(=O)N[C@H](C)c1ccc(C3(C(=O)O)CCOCC3)cc1)n2C` [Example 6]: in data set [1], the efflux ratio stood at 1.1, the Papp A→B worked out at 7.9 ×10⁻⁶ cm/s and the Papp B→A is 8.4 ×10⁻⁶ cm/s. Also, the IC50 on PHGDH was 943 nM.
With `Cc1cc(Cl)c2cc(C(=O)N[C@H](C)c3ccc(C4(C(=O)O)CCOCC4)cc3)n(C)c2c1` [Example 5], in data set [1], the efflux ratio was 1.2, the Papp A→B was 10 ×10⁻⁶ cm/s and the Papp B→A worked out at 12 ×10⁻⁶ cm/s. Further, the concentration for half-maximal inhibition (IC50) on PHGDH is 25 nM.
The corresponding values for `Cc1cc2c(cc(C(=O)N[C@H](C)c3ccc(C4(C(=O)O)CCOCC4)cc3)n2C)c(F)c1F` [Example 4] are 0.8, 12 ×10⁻⁶ cm/s, 9.2 ×10⁻⁶ cm/s and 31 nM.
The corresponding values for `Cc1cc2c(cc(C(=O)N[C@H](C)c3ccc(C4(C(=O)O)CCOCC4)cc3)n2C)c(Cl)c1F` [Example 3] are 0.6, 16 ×10⁻⁶ cm/s, 9.1 ×10⁻⁶ cm/s and 10 nM.
As for `Cc1cc(Cl)c2cc(C(=O)N[C@H](C)c3ccc(S(=O)(=O)C4(C(=O)O)CC4)cc3)n(C)c2c1` [Comp-3, reference compound], in data set [1], the efflux ratio was 17, the Papp A→B was 0.1 ×10⁻⁶ cm/s and the Papp B→A stood at 1.7 ×10⁻⁶ cm/s.
Take `Cc1cc2c(cc(C(=O)N[C@H](C)c3ccc(C4(C(=O)O)CCOCC4)cc3)n2C)c(Cl)c1Cl` [Example 1]: in data set [1], the efflux ratio was 0.9, the Papp A→B amounted to 17.1 ×10⁻⁶ cm/s and the Papp B→A was found to be 14.6 ×10⁻⁶ cm/s. Moreover, the IC50 on PHGDH was 6 nM.
Consider `Cc1cc(Cl)c2cc(C(=O)N[C@H](C)c3ccc(S(=O)(=O)C4(C(=O)O)CCOCC4)cc3)n(C)c2c1` [Comp-1, reference compound], for which, in data set [1], the Papp A→B is less than 0.4 ×10⁻⁶ cm/s and the Papp B→A was 0.2 ×10⁻⁶ cm/s.
`Cc1cc(Cl)c2cc(C(=O)N[C@H](C)c3ccc(S(=O)(=O)C4(C(=O)O)CCCC4)cc3)n(C)c2c1` [Comp-2, reference compound]: in data set [1], the efflux ratio was 1.8, the Papp A→B was found to be 0.2 ×10⁻⁶ cm/s and the Papp B→A worked out at 0.4 ×10⁻⁶ cm/s.
For the compound `Cc1cc2c(cc(C(=O)N[C@H](C)c3ccc(C4(C(=O)O)CCOCC4)cc3)n2C)c(F)c1Cl` [Example 2], in data set [1], the efflux ratio amounted to 1.2, the Papp A→B was 11 ×10⁻⁶ cm/s and the Papp B→A amounted to 13 ×10⁻⁶ cm/s. Further, on PHGDH, the IC50 was 27 nM.

For the origin of these results see patent publication US20260209210A1, “NEW SUBSTITUTED INDOLE-2-CARBOXAMIDES AS PHGDH INHIBITORS” (Boehringer Ingelheim International GmbH, priority 2022, published 2026).
